Non-standard residues stand in square brackets, D forms with d. Residues, ends and D or L forms follow the SMILES beside them. Nle = CCCC[C@H](N)C(=O)O
Columns and labels:
[1] = system: TEV protease; experiment: Initial tests of established inhibitors on TEV protease; type: biochemical, Tobacco Etch Virus; conditions: for Inhibition of TEV protease by known inhibitors of cysteine proteases: data not shown
[2] = target: T1, TEV protease (Tobacco etch virus, UniProt P04517); experiment: CP234-Luc/ENLYFQC verification assay; conditions: SCH HBr and L-DOPA tested from 0 – 1 mM; NF-023 and ATA from 0 – 0.2 mM
T1 sequence (P04517 2038-2279): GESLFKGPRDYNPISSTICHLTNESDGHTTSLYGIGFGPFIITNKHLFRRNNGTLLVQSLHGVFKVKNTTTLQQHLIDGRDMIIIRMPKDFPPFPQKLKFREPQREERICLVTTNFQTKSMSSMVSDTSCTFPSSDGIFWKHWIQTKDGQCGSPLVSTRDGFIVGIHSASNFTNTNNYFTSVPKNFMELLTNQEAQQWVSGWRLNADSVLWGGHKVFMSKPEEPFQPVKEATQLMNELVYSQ

[3] = target: T1, TEV protease; experiment: Protein fusion; type: biochemical; conditions: tested from 0 – 0.1 mM
[4] = target: T1, TEV protease; experiment: LOPAC1280 library screen using the CP234-Luc/ENLYFQC protease assay; type: biochemical; conditions: compounds at 100 µM, 15 minutes at room temperature

Row | Molecule | Inhibition of TEV protease by known inhibitors of cysteine proteases [1] | Inhibition of TEV protease cleavage in re-test, CP234-Luc/ENLYFQC assay [2] | further results
1 | [Zn] [zinc] |  |  | Inhibition of TEV protease ([1]; 5 mM, also frequently precipitated the proteins out of solution): effectively inhibited
2 | CC(C)C[C@H](NC(=O)[C@H]1O[C@@H]1C(=O)O)C(=O)NCCCCN=C(N)N [E-64] | resistant |  | 
3 | Br.CN=c1nc(-c2ccccc2)n(-c2ccccc2)s1 [SCH HBr, N-(2,3-diphenyl-1,2,4-thiadiazol-5-(2H)-ylidene)methanamine hydrobromide] |  | did not inhibit | Inhibition of TEV protease cleavage in re-test, protein fusion cleavage assay [3]: did not inhibit
4 | O=C(O)C1=CC(=C(c2ccc(O)c(C(=O)O)c2)c2ccc(O)c(C(=O)O)c2)C=CC1=O [ATA, aurintricarboxylic acid] |  | confirmed | TEV protease inhibition (cleavage of CP234-Luc/ENLYFQC) in primary screen [4]: greater than 60%
5 | CCCC[C@@H](C=O)NC(=O)[C@H](CC(C)C)NC(=O)[C@H](CC(C)C)NC(C)=O [ALLN, N-acetyl-Leu-Leu-NIe-CHO] (Ac-Leu-Leu-[Nle]-aldehyde) | resistant |  | 
6 | 2,5-dihydroxy-DL-tyrosine [L-DOPA] |  | did not inhibit | Inhibition of TEV protease cleavage in re-test, protein fusion cleavage assay [3]: did not inhibit
7 | CCOC(=O)[C@H]1O[C@@H]1C(=O)N[C@@H](CC(C)C)C(=O)NCCC(C)C (relative stereo) [EST, (2S,3S)-trans-Epoxysuccinyl-L-leucylamido-3-methylbutane Ethyl Ester] | resistant |  | 
